Assays:
[1] = target: T1, human BACE1 (Homo sapiens, UniProt P56817); test: BACE1 binding assay (SPA-based radioligand binding); design: biotin (biotinylated form); made in house; host or cells: Freestyle HEK293 cells; conditions: pH 4.5, 10 nM radioligand, Ki=IC50/(1+L/Kd)
Method: The binding assay was performed as SPA-based assay using a biotinylated form of human BACE1 recombinantly expressed and subsequently purified from Freestyle HEK293 cells. The binding assay was run in a 50 mM sodium acetate buffer, pH 4.5 containing 50 mM NaCl and 0.03% Tween-20 in white clear bottom 384 plates (Corning #3653). 10 nM (final concentration) radioligand ([^3H]—N-((1S,2R)-1-benzyl-3-cyclopropylamino-2-hydroxy-propyl)-5-(methanesulfonyl-methyl-amino)-N—((R)-1-phenyl-ethyl)-isophthalamide) (TRQ11569 purchased from GE Healthcare) was mixed with test compound at a given concentration, 6 nM (final concentration) human BACE1 and 25 μg Streptavidin coated PVT core SPA beads (RPNQ0007, GE Healthcare Life Sciences) in a total volume of 40 μl. Several concentrations of each test compound were tested in the assay for […] determination. The plates were incubated for one hour at room temperature and counted in a Wallac Trilux counter. Total and non-specific binding were determined using buffer and 1 μM (final concentration) of the high affinity BACE1 reference inhibitor (S)-6-[3-chloro-5-(5-prop-1-ynyl-pyridin-3-yl)-thiophen-2-yl]-2-imino-3,6-dimethyl-tetrahydro-pyrimidin-4-one, respectively. For each test compound, a 1050 value (the concentration mediating 50% inhibition of the specific binding of the radioligand) was determined from concentration-response curve and used to calculate the Ki from the equation Ki=IC50/(1+L/Kd), where L and Kd are the final concentration of the radioligand used in the assay and the dissociation constant of the radioligand, respectively. The Kd of the radioligand was determined from saturation binding experiments.

[2] = target: T1, human BACE1; test: BACE1 efficacy assay (FRET-based, commercial BACE1 kit); format: biochemical; design: purchased Life Technologies P2985; conditions: 10 μM test compound
Method: The efficacy assay was performed as a FRET-based assay using a commercially available BACE1 kit (Life Technologies, P2985). 2 μl test compound at 10 μM (final concentration) and 15 μl BACE1 enzyme from the kit (final concentration 3 nM) were preincubated for 15 minutes at room temperature before addition of 15 μl of substrate from the kit (250 nM final concentration) and incubated for additional 90 minutes at room temperature. The assay plate was subsequently read in a Pherastar (Ex540/Em590). The enzyme activity observed in presence of test compound were normalized to the enzyme activity observed in presence of buffer and 10 μM (final concentration) of the high affinity BACE1 reference inhibitor (S)-6-[3-Chloro-5-(5-prop-1-ynyl-pyridin-3-yl)-thiophen-2-yl]-2-imino-3,6-dimethyl-tetrahydropyrimidin-4-one, respectively. The efficacy of the test compounds was evaluated at 10 μM (final concentration) and defined as the percent inhibition of the enzyme activity using the equation % inhibition=100%−normalized enzyme activity in percent.

[3] = tested on: P-gp (MDR1); test: MDCK-MDR1 assay (permeability, efflux ratio); format: in vitro ADME; conditions: dog, Papp BA/Papp AB, 60-minute incubation
Method: The permeability of the test compounds was assessed in MDCK-MDR1 cells that were cultured to confluency (4-6 days) in a 96 transwell plate. Test compounds were diluted with the transport buffer (HBSS+1% BSA) to a concentration of 0.5 μM and applied to the apical or basolateral side of the cell monolayer. Permeation of the test compounds from A to B direction or B to A direction was determined in triplicate over a 60-minute incubation time at 37° C. and 5% CO2 with a relative humidity of 95%. Test compounds were quantified by LC-MS/MS analysis based on the peaks area ratios of analyte/IS in both the receiver and donor wells of the transwell plate. The apparent permeability coefficient Papp (cm/s) was calculated using the equation: […]
Where dCr/dt is the cumulative concentration of compound in the receiver chamber as a function of time (μM/s); Vr is the solution volume in the receiver chamber (0.05 mL on the apical side; 0.25 mL on the basolateral side); A is the surface area for the transport, i.e. 0.0804 cm^2 for the area of the monolayer; CO is the initial concentration in the donor chamber (μM).

T1 sequence (P56817 46-501): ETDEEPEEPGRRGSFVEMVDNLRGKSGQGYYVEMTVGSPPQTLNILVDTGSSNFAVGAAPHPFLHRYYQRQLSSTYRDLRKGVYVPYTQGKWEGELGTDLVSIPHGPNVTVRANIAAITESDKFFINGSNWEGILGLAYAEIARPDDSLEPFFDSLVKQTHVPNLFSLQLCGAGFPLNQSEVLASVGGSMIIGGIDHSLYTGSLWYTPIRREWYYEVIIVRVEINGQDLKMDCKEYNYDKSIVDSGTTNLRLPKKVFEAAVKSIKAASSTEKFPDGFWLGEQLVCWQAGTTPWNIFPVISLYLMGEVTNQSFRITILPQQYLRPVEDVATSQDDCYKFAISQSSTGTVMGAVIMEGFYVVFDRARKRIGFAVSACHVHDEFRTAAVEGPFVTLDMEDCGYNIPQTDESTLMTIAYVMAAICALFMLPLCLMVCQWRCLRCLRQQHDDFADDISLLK

Row | SMILES | Ki [1] [nM] | inhibition at 10 µM [2] [%] | efflux ratio at 60 min, 0.5 μM [3]
1 | COc1ccc(C(=O)Nc2ccc(F)c([C@]34COC[C@H]3C[C@@](F)(CF)C(N)=N4)c2)nc1 [Example 21, N-(3-((3S,4aS,7aS)-2-amino-3-fluoro-3-(fluoromethyl)-3,4,4a,5,7,7a-hexahydrofuro[3,4-b]pyridin-7a-yl)-4-fluorophenyl)-5-methoxypicolinamide] | 55 | 103 | 0.61
2 | NC1=N[C@@]2(c3cc(NC(=O)c4ccc(F)cn4)cc(F)c3F)COC[C@H]2C[C@@]1(F)CF [Example 23, N-[3-[(3S,4aS,7aS)-2-amino-3-fluoro-3-(fluoromethyl)-4,4a,5,7-tetrahydrofuro[3,4-b]pyridin-7a-yl]-4,5-difluoro-phenyl]-5-fluoro-pyridine-2-carboxamide] | 200 | 103 | 0.89
3 | COc1cnc(C(=O)Nc2cc(F)c(F)c([C@]34COC[C@H]3C[C@@](F)(CF)C(N)=N4)c2)cn1 [Example 24, N-[3-[(3S,4aS,7aS)-2-amino-3-fluoro-3-(fluoromethyl)-4,4a,5,7-tetrahydrofuro[3,4-b]pyridin-7a-yl]-4,5-difluoro-phenyl]-5-methoxy-pyrazine-2-carboxamide] | 130 | 103 | 0.82
